By Kd is commonly meant the equilibrium constant for the complex coming apart.

Test [1] concerns the target T1, EKC/KEOPS complex subunit TP53RK (Homo sapiens, UniProt Q96S44).
T1 sequence (Q96S44 whole entry): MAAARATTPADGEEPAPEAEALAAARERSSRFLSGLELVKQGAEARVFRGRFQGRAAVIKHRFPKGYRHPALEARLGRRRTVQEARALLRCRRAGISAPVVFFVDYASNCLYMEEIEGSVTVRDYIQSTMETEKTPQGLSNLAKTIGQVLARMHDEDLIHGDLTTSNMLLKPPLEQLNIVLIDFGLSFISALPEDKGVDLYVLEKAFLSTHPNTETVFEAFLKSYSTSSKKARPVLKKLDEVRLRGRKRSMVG

Test [2] deals with Structural maintenance of chromosomes protein 2 (Homo sapiens, UniProt O95347).
Structural maintenance of chromosomes protein 2, sequence (O95347 whole entry): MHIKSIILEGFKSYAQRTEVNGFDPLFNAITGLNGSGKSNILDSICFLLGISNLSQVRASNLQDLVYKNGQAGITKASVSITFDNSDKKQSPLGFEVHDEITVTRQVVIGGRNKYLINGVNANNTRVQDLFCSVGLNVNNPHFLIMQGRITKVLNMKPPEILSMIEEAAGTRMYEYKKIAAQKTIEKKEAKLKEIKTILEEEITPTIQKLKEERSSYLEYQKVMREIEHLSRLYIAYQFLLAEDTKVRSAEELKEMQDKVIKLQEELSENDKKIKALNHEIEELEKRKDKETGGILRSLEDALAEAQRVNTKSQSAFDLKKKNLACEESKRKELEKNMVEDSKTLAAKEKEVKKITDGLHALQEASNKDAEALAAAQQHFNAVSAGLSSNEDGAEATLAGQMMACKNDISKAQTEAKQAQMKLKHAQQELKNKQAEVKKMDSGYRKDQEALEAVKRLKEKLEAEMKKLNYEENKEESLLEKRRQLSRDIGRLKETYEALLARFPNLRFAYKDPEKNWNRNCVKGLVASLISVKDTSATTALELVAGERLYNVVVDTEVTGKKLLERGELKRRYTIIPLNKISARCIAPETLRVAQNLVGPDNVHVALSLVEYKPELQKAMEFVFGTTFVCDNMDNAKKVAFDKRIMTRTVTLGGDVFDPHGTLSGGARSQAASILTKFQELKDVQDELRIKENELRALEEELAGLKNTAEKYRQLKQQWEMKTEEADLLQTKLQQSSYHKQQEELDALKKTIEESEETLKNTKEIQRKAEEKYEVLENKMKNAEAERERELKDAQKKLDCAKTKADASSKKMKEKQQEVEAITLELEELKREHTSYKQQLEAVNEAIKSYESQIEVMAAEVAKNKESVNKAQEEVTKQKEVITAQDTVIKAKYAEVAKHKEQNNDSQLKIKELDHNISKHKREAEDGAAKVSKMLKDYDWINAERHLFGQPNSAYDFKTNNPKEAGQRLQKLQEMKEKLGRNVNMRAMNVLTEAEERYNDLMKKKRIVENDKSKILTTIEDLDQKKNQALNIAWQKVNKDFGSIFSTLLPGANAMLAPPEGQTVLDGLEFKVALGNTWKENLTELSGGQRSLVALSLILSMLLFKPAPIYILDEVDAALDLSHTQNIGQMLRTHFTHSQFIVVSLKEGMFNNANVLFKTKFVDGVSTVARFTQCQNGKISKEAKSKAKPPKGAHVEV
Test [3] deals with Eukaryotic translation initiation factor 2-alpha kinase 1 (Homo sapiens, UniProt Q9BQI3).
Eukaryotic translation initiation factor 2-alpha kinase 1, sequence (Q9BQI3 whole entry): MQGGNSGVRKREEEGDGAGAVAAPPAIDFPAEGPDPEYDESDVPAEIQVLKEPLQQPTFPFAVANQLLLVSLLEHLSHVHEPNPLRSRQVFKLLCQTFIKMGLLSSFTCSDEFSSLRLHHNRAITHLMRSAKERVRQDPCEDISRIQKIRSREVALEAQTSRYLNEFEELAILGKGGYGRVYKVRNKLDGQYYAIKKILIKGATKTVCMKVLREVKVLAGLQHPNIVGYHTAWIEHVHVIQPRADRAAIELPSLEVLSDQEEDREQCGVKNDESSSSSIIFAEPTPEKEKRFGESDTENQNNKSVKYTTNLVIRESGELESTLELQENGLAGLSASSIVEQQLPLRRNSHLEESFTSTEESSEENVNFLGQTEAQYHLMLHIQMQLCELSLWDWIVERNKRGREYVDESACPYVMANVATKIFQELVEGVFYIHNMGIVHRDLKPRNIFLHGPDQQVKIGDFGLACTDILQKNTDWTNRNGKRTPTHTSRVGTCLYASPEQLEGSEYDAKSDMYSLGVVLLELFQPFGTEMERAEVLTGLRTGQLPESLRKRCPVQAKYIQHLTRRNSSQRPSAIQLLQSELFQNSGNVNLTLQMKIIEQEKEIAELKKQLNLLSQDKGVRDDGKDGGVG
The target in test [4] is RAC-gamma serine/threonine-protein kinase (Homo sapiens, UniProt Q9Y243).
RAC-gamma serine/threonine-protein kinase, sequence (Q9Y243 whole entry): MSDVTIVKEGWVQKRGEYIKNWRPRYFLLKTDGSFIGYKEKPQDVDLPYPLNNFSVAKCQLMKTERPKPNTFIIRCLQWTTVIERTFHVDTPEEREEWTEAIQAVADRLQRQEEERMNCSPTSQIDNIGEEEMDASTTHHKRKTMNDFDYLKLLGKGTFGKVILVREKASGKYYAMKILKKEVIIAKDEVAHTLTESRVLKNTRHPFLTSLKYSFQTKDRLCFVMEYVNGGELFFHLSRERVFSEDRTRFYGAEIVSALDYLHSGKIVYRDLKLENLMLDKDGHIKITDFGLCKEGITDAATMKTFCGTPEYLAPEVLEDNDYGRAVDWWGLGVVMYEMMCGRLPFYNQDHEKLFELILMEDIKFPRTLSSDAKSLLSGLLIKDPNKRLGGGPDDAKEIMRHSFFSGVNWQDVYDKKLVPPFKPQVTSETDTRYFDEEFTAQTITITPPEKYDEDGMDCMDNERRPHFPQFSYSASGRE
Test [5] has as its target Ribosomal protein S6 kinase alpha-5 (Homo sapiens, UniProt O75582).
In test [6] the target is Tyrosine-protein kinase HCK (Homo sapiens, UniProt P08631).
Tyrosine-protein kinase HCK, sequence (P08631 whole entry): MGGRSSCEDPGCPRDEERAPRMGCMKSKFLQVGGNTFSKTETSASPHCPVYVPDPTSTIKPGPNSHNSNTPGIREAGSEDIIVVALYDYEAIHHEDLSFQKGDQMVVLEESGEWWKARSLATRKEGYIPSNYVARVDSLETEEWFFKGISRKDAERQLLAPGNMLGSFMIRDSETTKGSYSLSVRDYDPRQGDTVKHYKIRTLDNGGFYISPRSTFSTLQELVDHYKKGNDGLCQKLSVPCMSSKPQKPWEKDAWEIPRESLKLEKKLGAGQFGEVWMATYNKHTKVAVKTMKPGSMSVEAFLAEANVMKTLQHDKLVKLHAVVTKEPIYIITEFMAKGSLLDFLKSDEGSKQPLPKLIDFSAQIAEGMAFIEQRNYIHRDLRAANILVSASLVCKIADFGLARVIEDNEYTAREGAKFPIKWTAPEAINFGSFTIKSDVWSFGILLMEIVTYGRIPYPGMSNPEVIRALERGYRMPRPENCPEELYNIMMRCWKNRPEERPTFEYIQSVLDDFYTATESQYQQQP
The target of another test is T2, Ephrin type-B receptor 4 (Homo sapiens, UniProt P54760).
T2 sequence (P54760 whole entry): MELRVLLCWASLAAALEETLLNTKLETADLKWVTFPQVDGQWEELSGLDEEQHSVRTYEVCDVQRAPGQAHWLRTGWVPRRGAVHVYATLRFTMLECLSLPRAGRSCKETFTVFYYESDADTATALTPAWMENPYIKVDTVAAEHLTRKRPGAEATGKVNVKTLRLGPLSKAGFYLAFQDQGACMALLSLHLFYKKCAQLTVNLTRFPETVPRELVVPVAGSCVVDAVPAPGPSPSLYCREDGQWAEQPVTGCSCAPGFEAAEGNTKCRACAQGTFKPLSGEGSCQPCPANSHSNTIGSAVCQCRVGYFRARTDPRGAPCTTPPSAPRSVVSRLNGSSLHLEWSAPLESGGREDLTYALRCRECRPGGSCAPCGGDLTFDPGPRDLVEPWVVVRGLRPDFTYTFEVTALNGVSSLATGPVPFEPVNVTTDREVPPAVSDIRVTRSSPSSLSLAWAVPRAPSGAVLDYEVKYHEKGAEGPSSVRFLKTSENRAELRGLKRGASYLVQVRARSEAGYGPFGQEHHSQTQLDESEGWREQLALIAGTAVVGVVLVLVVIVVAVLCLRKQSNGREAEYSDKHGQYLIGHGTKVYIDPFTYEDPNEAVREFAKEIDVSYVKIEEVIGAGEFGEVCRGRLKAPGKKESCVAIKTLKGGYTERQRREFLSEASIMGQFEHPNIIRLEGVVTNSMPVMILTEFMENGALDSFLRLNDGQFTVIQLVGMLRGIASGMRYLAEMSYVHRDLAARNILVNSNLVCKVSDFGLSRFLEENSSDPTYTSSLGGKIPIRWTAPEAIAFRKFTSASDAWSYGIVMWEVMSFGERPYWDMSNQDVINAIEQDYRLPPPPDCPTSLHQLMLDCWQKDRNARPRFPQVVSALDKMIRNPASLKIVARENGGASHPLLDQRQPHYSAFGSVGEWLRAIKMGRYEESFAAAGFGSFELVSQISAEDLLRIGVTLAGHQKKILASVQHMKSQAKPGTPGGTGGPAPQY

The target in test [7] is Mitogen-activated protein kinase 3 (Homo sapiens, UniProt P27361).
Mitogen-activated protein kinase 3, sequence (P27361 whole entry): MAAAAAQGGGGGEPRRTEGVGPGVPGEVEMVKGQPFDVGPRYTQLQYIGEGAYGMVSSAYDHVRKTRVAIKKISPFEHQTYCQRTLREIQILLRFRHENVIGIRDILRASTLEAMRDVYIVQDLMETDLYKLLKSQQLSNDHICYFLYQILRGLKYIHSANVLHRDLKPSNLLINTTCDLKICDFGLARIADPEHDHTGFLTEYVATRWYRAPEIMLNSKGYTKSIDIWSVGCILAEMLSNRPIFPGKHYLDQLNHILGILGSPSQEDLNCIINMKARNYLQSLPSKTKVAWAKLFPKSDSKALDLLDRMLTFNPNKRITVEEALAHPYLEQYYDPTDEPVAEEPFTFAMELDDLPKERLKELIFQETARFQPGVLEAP
In test [8] the target is T3, Ferrochelatase, mitochondrial (Homo sapiens, UniProt P22830).
T3 sequence (P22830 whole entry): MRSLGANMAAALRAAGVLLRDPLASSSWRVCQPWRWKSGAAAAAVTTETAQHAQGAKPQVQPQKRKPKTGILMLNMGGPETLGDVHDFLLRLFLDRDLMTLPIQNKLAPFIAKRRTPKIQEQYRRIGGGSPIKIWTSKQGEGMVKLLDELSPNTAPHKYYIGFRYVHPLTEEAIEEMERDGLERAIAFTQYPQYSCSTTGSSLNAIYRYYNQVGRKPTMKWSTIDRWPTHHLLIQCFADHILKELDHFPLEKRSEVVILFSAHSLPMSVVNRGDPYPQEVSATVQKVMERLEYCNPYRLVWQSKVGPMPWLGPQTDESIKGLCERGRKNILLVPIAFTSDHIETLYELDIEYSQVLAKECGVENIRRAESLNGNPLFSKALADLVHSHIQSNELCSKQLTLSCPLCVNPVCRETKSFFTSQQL

In test [9] the target is Putative heat shock protein HSP 90-beta 2 (Homo sapiens, UniProt Q58FF8).
Putative heat shock protein HSP 90-beta 2, sequence (Q58FF8 whole entry): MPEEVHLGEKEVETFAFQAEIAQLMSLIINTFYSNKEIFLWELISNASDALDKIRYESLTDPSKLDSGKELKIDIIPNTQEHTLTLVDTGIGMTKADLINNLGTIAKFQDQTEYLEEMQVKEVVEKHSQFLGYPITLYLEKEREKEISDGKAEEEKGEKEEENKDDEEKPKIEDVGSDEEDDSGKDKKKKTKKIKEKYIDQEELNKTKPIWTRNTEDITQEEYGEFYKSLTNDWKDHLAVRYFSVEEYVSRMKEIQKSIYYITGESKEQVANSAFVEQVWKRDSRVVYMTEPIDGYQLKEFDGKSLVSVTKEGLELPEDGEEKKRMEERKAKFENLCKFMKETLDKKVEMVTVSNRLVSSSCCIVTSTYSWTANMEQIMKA
Test [10] addresses NADH dehydrogenase [ubiquinone] 1 alpha subcomplex subunit 13 (Homo sapiens, UniProt Q9P0J0).
In test [11] the target is Tyrosine-protein kinase BTK (Homo sapiens, UniProt Q06187).

Molecules are shown by their SMILES. Calls of active or inactive are those of the source. Rule as the data show it, for most assays here: actives have a measured Kd and inactives only a lower limit. Where only a bound is given, the exact number is not on record here.
Also: in the data inactive means no Kd found up to 30 µM.

NADH dehydrogenase [ubiquinone] 1 alpha subcomplex subunit 13, sequence (Q9P0J0 whole entry, one chain of several): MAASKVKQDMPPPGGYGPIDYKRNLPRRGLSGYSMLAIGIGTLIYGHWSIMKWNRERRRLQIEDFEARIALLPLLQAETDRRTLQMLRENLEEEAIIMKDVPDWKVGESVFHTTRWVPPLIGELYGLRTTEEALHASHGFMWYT
Ribosomal protein S6 kinase alpha-5, sequence (O75582 whole entry): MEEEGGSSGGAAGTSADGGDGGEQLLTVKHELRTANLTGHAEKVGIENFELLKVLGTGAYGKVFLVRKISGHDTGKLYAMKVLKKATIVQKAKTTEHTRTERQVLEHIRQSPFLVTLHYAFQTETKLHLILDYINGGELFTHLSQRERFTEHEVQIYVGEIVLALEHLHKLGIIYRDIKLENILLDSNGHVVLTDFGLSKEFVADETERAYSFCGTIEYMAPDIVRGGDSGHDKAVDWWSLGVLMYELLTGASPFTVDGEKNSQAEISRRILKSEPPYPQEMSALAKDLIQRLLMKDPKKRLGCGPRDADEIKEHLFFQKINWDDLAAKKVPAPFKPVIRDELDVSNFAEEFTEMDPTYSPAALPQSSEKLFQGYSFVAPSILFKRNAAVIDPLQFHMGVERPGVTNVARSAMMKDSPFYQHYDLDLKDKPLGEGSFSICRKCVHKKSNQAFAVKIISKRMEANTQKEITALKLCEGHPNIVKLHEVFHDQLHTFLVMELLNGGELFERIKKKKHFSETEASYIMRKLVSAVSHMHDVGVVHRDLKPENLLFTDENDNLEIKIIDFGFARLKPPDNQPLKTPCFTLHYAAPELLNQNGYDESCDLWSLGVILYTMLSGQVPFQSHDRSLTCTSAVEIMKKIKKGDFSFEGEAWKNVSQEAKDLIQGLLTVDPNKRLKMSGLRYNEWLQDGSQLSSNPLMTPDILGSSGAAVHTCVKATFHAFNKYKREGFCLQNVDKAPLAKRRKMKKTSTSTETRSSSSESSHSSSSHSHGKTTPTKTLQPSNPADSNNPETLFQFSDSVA

For `C=CCn1c(=O)c2cnc(Nc3ccc(N4CCN(C)CC4)cc3)nc2n1-c1cccc(C(C)(C)O)n1` [ADAVOSERTIB], the Kd in [1], in test [2], in test [3], in test [4], in test [5] and in test [6] was > 30 µM (inactive) in each case. Besides, the Kd (at Ephrin type-B receptor 4; in test [7]; in [8]; in test [9]; in test [10]) was > 30 µM (inactive) each time.

For `CC1(C)CNc2cc(NC(=O)c3cccnc3NCc3ccncc3)ccc21` [MOTESANIB], the Kd in test [1], in test [2], in [8], in [9] and in [10] was > 30 µM (inactive) throughout.

In the case of `COc1cc2c(N3CCN(C(=O)Nc4ccc(OC(C)C)cc4)CC3)ncnc2cc1OCCCN1CCCCC1` [TANDUTINIB], the Kd in [1], in test [2], in test [8], in test [9] and in test [10] was > 30 µM (inactive) each time.

In the case of `O=S(=O)(c1cccc2cnccc12)N1CCCNCC1` [FASUDIL], the Kd (in test [1]; in test [2]; in test [3]; in test [6]; on Ephrin type-B receptor 4; in test [7]) was > 30 µM (inactive) in each case. In addition, the Kd in test [8], in test [9] and in test [10] was > 30 µM (inactive) in each case.

On to `CCN(CCCOc1ccc2c(Nc3cc(CC(=O)Nc4cccc(F)c4)n[nH]3)ncnc2c1)CCOP(=O)(O)O` [BARASERTIB], for which the Kd (in [1]; in [2]; in test [3]; in test [4]; in test [5]; at Ephrin type-B receptor 4) was > 30 µM (inactive) each time. Besides, the Kd in test [7], in test [8], in [9] and in test [10] was > 30 µM (inactive) in each case.

With `CN(C)C/C=C/C(=O)Nc1cc2c(Nc3ccc(F)c(Cl)c3)ncnc2cc1O[C@H]1CCOC1` [AFATINIB], the Kd in test [1], in test [2], in test [8], in test [9] and in test [10] was > 30 µM (inactive) in each case.

Turning to `Cn1cnc2c(F)c(Nc3ccc(Br)cc3Cl)c(C(=O)NOCCO)cc21` [SELUMETINIB], the Kd was > 30 µM (inactive) in test [1]; 0.209 µM in test [2]; > 30 µM (inactive) in test [8]; > 30 µM (inactive) in test [9]; > 30 µM (inactive) in test [10].

Take `Cn1c(=O)n(-c2ccc(C(C)(C)C#N)cc2)c2c3cc(-c4cnc5ccccc5c4)ccc3ncc21` [DACTOLISIB]: the Kd in test [1], in test [2], in test [3], in test [4], in test [5] and in [6] was > 30 µM (inactive) throughout. In addition, the Kd (at Ephrin type-B receptor 4; in [7]; in test [8]; in test [9]; in [10]) was > 30 µM (inactive) throughout.

Take `CC(C)CC(=O)Nc1[nH]nc2c1CN(C(=O)C1CCN(C)CC1)C2(C)C` [PHA-793887]: the Kd in [1], in [2], in test [3], in test [4], in test [5] and in test [6] was > 30 µM (inactive) each time. Further, the Kd (at Ephrin type-B receptor 4; in test [8]; in test [11]; in test [9]; in [10]) was > 30 µM (inactive) each time.

Consider `COc1cc2c(Oc3ccc4[nH]c(C)cc4c3F)ncnc2cc1OCCCN1CCCC1` [CEDIRANIB], for which the Kd in [1], in [2], in test [8], in [9] and in test [10] was > 30 µM (inactive) throughout.

`C[C@]1(O)C[C@@H](c2nc(-c3ccc4ccc(-c5ccccc5)nc4c3)c3c(N)nccn32)C1` [LINSITINIB]: the Kd in test [1] is > 30 µM (inactive); in test [2], > 30 µM (inactive); in test [3], > 30 µM (inactive); in [6] it was > 30 µM (inactive); at Ephrin type-B receptor 4, > 30 µM (inactive); in [8] it was 4.21 µM (active). For the same compound, the Kd in [9] and in test [10] was > 30 µM (inactive) in each case.

As to `CN(c1ncccc1CNc1nc(Nc2ccc3c(c2)CC(=O)N3)ncc1C(F)(F)F)S(C)(=O)=O` [PF-00562271], the Kd (in test [1]; in test [2]; in test [3]; at Ephrin type-B receptor 4; in test [7]; in [8]) was > 30 µM (inactive) throughout. The Kd in test [9] and in test [10] was > 30 µM (inactive) throughout.

For the compound `C[C@@]1(C(=O)Nc2ccc(F)nc2)CCCN1c1nc(Nc2cc(C3CC3)n[nH]2)c2cccn2n1` [BMS-754807], the Kd in test [1], in [2], in test [4], in test [8] and in test [9] was > 30 µM (inactive) each time.

The record behind these values is ChEMBL document CHEMBL3991601, “The target landscape of clinical kinase drugs” (Science, 2017).
